Patent US12005050B2, “Methods for preventing or treating H. pylori infection” (TENNOR THERAPEUTICS (SUZHOU) LIMITED, priority 2022, dated 2024)

Legend:
Helicobacter pylori [1] = test: H. pylori eradication by urea breath test (UBT) (Example 1); assay type: in vivo; settings: for Patients with UBT negative results: N = 10
Procedure: 40 asymptomatic healthy patients that are positive for Helicobacter pylori infection were admitted to the trial. The 40 patients were randomly allocated to four groups at a ratio of 1:1:1:1.
Different therapies were administered to the patients of each group according to the schedule below: • Group A: • Compound I capsule 200 mg/time (2 capsules, 100 mg/capsule), twice per day (BID); rabeprazole sodium enteric-coated tablet 20 mg/time (1 tablet, 20 mg/tablet), twice per day (BID) • Group B: • Compound I capsule 400 mg/time (4 capsules, 100 mg/capsule), twice per day (BID); rabeprazole sodium enteric-coated tablet 20 mg/time (1 tablet, 20 mg/tablet), twice per day (BID) • Group C: • Compound I capsule 600 mg/time (6 capsules, 100 mg/capsule), twice per day (BID); rabeprazole sodium enteric-coated tablet 20 mg/time (1 tablet, 20 mg/tablet), twice per day (BID) • Group D: • Compound I capsule 400 mg/time (4 capsules, 100 mg/capsule), twice per day (BID); rabeprazole sodium enteric-coated tablet 20 mg/time (1 tablet, 20 mg/tablet), twice per day (BID); amoxicillin capsule 1 g/time (4 capsules, 0.25 g/capsule), twice per day (BID)
All patients were admitted to the clinical research center 1 day before dosing (D-1 Day), randomly allocated to respective groups and completed examinations for safety and baseline indicators. From day 1 to day 14, respective therapies/drugs were orally administered to the patients within 30 minutes after breakfast and dinner. On day 15, the last dose was administered orally to the patients within 30 minutes after breakfast. During the trial, each patient was dosed for 29 times in total. All patients left the hospital after completing a safety tolerance assessment on day 17 and returned to the clinical research center for urea breath test (UBT) follow-up examination between days 44 and 50 to evaluate the effect of Helicobacter pylori eradication.
The initial analysis of eradication effect was based on the full data set, which is defined as all patients who were randomly selected and received at least one dose of the trial combination therapy.
The eradication effects in each trial group were evaluated by UBT tests (negative or positive) conducted at the baseline time point, on day 8 after drug administration, day 16 after drug administration and day 44-50 of follow-up visit. Descriptive analysis was done using frequency (percentage), and comparison between groups was made. Fisher precision test was used to conduct between-group comparison analysis. As an aid to the analysis, the UBT values were listed as mean, standard deviation, median, minimum, maximum, and deviation from the baseline.

Helicobacter pylori [2] = test: H. pylori eradication by 14C UBT test (Example 2); assay type: in vivo; settings: BID × 14 day; for UBT results Negative / UBT results Positive: treatment group A: Compound I capsule 400 mg + rabeprazole sodium 20 mg + amoxicillin 1 g
Procedure: In this example, 80 patients that are positive for Helicobacter pylori infection were admitted to the trial. The 80 patients were randomly allocated to 5 groups at a ratio of 2:2:1:1:2, including 4 treatment groups and 1 control group, and the dosage regimen is shown in Table 4.
Patients were administered with the combination therapy daily according to the dosing regimen of the respective group from day 1 to day 14, and the last dose was administered in the morning of day 15. Pharmacokinetic blood samples were collected at the scheduled time point during the trial and patiented to a safety tolerance assessment and ^14C UBT test. All patients left the hospital after completing the safety tolerance assessment and PK blood collection on the 17th day (day 17), and returned to the research institution for follow-up visits from the 44th to 50th day (day 44-day 50). Follow-up of adverse events and laboratory abnormalities continued until the patients completely recovered or returned to baseline levels or stable states. Safety tolerance assessment, and ^14C UBT tests were performed to assess H. pylori eradication effects.
The administration regimen was as follows: • Group A, Group B and Control Group: • Twice per day, the combination therapy was administered orally within 30 mins after breakfast and dinner, respectively, and the combination therapy was administered for 14 days consecutively. On day 15, the last administration was provided within 30 mins after breakfast. Each patient was administered for 29 times in total. • Group C and Group D: • Three times per day, and two administrations were separated by about 8 hours.
Patients were examined with ^14C UBT test during the screening period (D-14˜D-2), baseline period (D-1), day 8 (D8), day 16 (D16) and days 44˜50 (D44˜D50). The test was done fasting before breakfast to determine the effects of H. pylori eradication in each group.
• Full Analysis Set (FAS): refers to all randomized patients who have been administered with the combination therapy of the present disclosure at least once; • Modified Intentionality Analysis Set (mITT): refers to all randomized patients who underwent a ^14C UBT test on days 28 to 34 after the last administration; • Protocol-compliant Set (PP): refers to patients who have not experienced major protocol violations: randomized and treated with more than 80% (including 80%) of the total amount of the drug expected to be used in the investigation, and who were tested for ^14C UBT on days 28 to 34 after the last administration; • Safety Analysis Set (SS): refers to the patients who have entered the trial and have been administered the combination therapy of the present disclosure at least once; • Pharmacokinetic Concentration Analysis Dataset (PKCS): refers to all enrolled patients who have been administered with the combination therapy of the present disclosure and had at least one PK concentration observation; • Pharmacokinetic Parameter Analysis Dataset (PKPS): Refers to all enrolled patients who have been administered with the combination therapy of the present disclosure and had at least one PK parameter observation data point. Demographic Analysis: • Demographic analysis was based on Full Analysis Set (FAS). Descriptive statistical analysis of all demographics (age, sex, weight, height, BMI, ethnicity, etc.) and baseline characteristics, based on the measurement of the last valid data before the administration of the combination therapy of the present disclosure. Evaluation of the Eradication Effect of Helicobacter pylori: • The eradication effect analysis was performed with the Full Analysis Set (FAS), based on the results of four ^14C UBT tests (negative or positive) in group A, group B, group C, and control groups at baseline, on day 8, day 16, and follow-up days 44 to 50, and three ^14C UBT test results (negative or positive) in group D at baseline, on day 8, and follow-up days 37 to 43. […]

[3] = Solubility of drug substance; assay type: physicochemical
[4] = Day 8 after administration, FAS N = 20
[5] = Day 8 after administration, mITT N = 19
[6] = Day 16 after administration, FAS N = 20
[7] = Day 16 after administration, mITT N = 19
[8] = Follow up period (Day 44~Day 50), FAS N = 20
[9] = Follow up period (Day 44~Day 50), mITT N = 19

- Solubility of drug substance [3]: low solubility
SMILES: CO[C@H]1/C=C/O[C@@]2(C)Oc3c(C)c(O)c4c(c3C2=O)C2=NC3(CCN(CCn5c([N+](=O)[O-])cnc5C)CC3)NC2=C(NC(=O)/C(C)=C\C=C\[C@H](C)[C@H](O)[C@@H](C)[C@@H](O)[C@@H](C)[C@H](OC(C)=O)[C@@H]1C)C4=O [Compound I, 4-Deoxy-3,4-[2-spiro-[1-[2-(2-methyl-5-nitro-imidazol-1-yl)ethyl]-piperidin-4-yl]]-(1H)-imidazo-(2,5-dihydro)rifamycin]
- Patients with UBT negative results (Helicobacter pylori [1]; Day 8, Group A: Compound I 200 mg BID + rabeprazole sodium 20 mg BID): 7 (70.0) n(%)
- Patients with UBT negative results (Helicobacter pylori [1]; Day 8, Group B: Compound I 400 mg BID + rabeprazole sodium 20 mg BID): 10 (100.0) n(%)
- Patients with UBT negative results (Helicobacter pylori [1]; Day 8, Group C: Compound I 600 mg BID + rabeprazole sodium 20 mg BID): 8 (80.0) n(%)
- Patients with UBT negative results (Helicobacter pylori [1]; Day 8, Group D: Compound I 400 mg BID + rabeprazole sodium 20 mg BID + amoxicillin 1 g BID): 7 (70.0) n(%)
- Patients with UBT negative results (Helicobacter pylori [1]; Day 16, Group A: Compound I 200 mg BID + rabeprazole sodium 20 mg BID): 3 (30.0) n(%)
- Patients with UBT negative results (Helicobacter pylori [1]; Day 16, Group B: Compound I 400 mg BID + rabeprazole sodium 20 mg BID): 5 (50.0) n(%)
- Patients with UBT negative results (Helicobacter pylori [1]; Day 16, Group C: Compound I 600 mg BID + rabeprazole sodium 20 mg BID): 6 (60.0) n(%)
- Patients with UBT negative results (Helicobacter pylori [1]; Day 16, Group D: Compound I 400 mg BID + rabeprazole sodium 20 mg BID + amoxicillin 1 g BID): 10 (100.0) n(%)
- Patients with UBT negative results (Helicobacter pylori [1]; Follow up period (Day 44~50), Group A: Compound I 200 mg BID + rabeprazole sodium 20 mg BID): 0 (0.0) n(%)
- Patients with UBT negative results (Helicobacter pylori [1]; Follow up period (Day 44~50), Group B: Compound I 400 mg BID + rabeprazole sodium 20 mg BID): 3 (30.0) n(%)
- Patients with UBT negative results (Helicobacter pylori [1]; Follow up period (Day 44~50), Group C: Compound I 600 mg BID + rabeprazole sodium 20 mg BID): 4 (40.0) n(%)
- Patients with UBT negative results (Helicobacter pylori [1]; Follow up period (Day 44~50), Group D: Compound I 400 mg BID + rabeprazole sodium 20 mg BID + amoxicillin 1 g BID): 8 (80.0) n(%)
- Eradication rate of H. pylori (Helicobacter pylori [1]; Follow-up period (day 44 to day 50), Group D: Compound I 400 mg BID + rabeprazole sodium 20 mg BID + amoxicillin 1 g BID): 80%
- UBT results Negative (Helicobacter pylori [2]; [4]): 18 (90.0) n(%)
- UBT results Positive (Helicobacter pylori [2]; [4]): 1 (5.0) n(%)
- UBT results Negative (Helicobacter pylori [2]; [5]): 18 (94.7) n(%)
- UBT results Positive (Helicobacter pylori [2]; [5]): 1 (5.3) n(%)
- UBT results Negative (Helicobacter pylori [2]; [6]): 18 (90.0) n(%)
- UBT results Positive (Helicobacter pylori [2]; [6]): 1 (5.0) n(%)
- UBT results Negative (Helicobacter pylori [2]; [7]): 18 (94.7) n(%)
- UBT results Positive (Helicobacter pylori [2]; [7]): 1 (5.3) n(%)
- UBT results Negative (Helicobacter pylori [2]; [8]): 18 (90.0) n(%)
- UBT results Positive (Helicobacter pylori [2]; [8]): 1 (5.0) n(%)
- UBT results Negative (Helicobacter pylori [2]; [9]): 18 (94.7) n(%)
- UBT results Positive (Helicobacter pylori [2]; [9]): 1 (5.3) n(%)
- Eradication rate (mITT set) of Helicobacter pylori (Helicobacter pylori [2]; treatment group A: combination therapy of compound I, rabeprazole sodium and amoxicillin): 94.7%
